One block for each compound: values may come before it. Active and inactive are the calls of the source. No cut-off for these calls is given here.
What was measured:
[1] = target: T1, Lymphocyte antigen 96 (Homo sapiens) (UniProt Q9Y6Y9); assay: Binding affinity to recombinant human MD2 (17 to 160 residues) expressed in Escherichia coli BL21(DE3) cells at 6.25 to 100 uM by surface plasmon resonance analysis
T1 sequence (whole entry): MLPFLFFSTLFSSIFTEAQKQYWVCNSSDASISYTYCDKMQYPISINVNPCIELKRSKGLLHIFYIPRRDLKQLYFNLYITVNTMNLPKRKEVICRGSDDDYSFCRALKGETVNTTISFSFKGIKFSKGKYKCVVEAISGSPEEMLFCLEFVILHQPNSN

[2] = Cytotoxicity against C57BL/6 mouse primary peritoneal macrophages assessed as reduction in cell viability at 10 uM after 24 hrs by MTT assay; format: cell-based; settings: peritoneal macrophage cell
[3] = target: Toll-like receptor 2 (Mus musculus) (UniProt Q9QUN7); assay: Inhibition of TLR2 in mouse RAW264.7 cells assessed as inhibition of Pam3CK-induced TNF-alpha level at 5 to 10 uM preincubated for 2 hrs followed by Pam3CK addition measured after 12 hrs by ELISA; format: cell-based
Toll-like receptor 2 (Mus musculus), sequence (Q9QUN7 whole entry): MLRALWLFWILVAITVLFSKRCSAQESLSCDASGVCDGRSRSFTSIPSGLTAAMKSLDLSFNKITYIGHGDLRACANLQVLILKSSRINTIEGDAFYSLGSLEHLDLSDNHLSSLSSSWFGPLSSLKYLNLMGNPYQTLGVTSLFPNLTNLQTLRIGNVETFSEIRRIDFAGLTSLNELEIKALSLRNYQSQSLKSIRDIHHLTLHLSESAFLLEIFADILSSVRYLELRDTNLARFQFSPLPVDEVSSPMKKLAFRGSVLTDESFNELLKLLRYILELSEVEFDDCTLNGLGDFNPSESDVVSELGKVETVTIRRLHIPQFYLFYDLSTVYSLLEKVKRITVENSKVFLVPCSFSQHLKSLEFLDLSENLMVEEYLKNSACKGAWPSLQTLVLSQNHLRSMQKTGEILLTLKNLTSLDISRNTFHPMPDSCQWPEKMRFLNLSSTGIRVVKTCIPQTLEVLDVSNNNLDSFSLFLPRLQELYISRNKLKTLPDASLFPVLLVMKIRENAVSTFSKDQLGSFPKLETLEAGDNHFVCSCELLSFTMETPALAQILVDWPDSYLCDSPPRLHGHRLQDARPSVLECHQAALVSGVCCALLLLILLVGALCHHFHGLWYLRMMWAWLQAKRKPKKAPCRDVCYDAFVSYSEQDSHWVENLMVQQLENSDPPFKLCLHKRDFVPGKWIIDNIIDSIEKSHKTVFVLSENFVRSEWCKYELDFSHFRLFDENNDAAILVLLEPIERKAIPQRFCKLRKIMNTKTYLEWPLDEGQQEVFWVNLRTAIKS

Mus musculus [4] = assay: Antiinflammatory activity in acute lung injury C57BL/6 mouse model assessed as inhibition of LPS-induced lung edema at 20 mg/kg, po treated 15 mins before LPS challenge measured after 6 hrs; format: functional, organism-based
Mus musculus [5] = assay: Antiinflammatory activity in acute lung injury C57BL/6 mouse model assessed as inhibition of LPS-induced thickening of alveolar wall at 20 mg/kg, po treated 15 mins before LPS challenge measured after 6 hrs by hematoxylin and eosin staining based light microscopic analysis; format: functional, organism-based
[6] = Cmax in Sprague-Dawley rat plasma at 10 mg/kg, iv after 24 hrs by UPLC analysis; format: ADME, organism-based; design: dose 10 mg/kg, route intravenous
Mus musculus [7] = assay: Antiinflammatory activity in acute lung injury C57BL/6 mouse model assessed as inhibition of LPS-induced macrophage infilteration by measuring reduction in CD68 expression in lung tissues at 20 mg/kg, po treated 15 mins before LPS challenge measured after 6 hrs by DAB staining based immunohistochemical analysis; format: functional, organism-based
[8] = Cmax in Sprague-Dawley rat plasma at 20 mg/kg, po measured immediately post treatment by UPLC analysis; format: ADME, organism-based; design: dose 20 mg/kg, route oral
[9] = Cmax in Sprague-Dawley rat plasma at 10 mg/kg, iv measured immediately post treatment by UPLC analysis; format: ADME, organism-based; design: dose 10 mg/kg, route intravenous
[10] = Cmax in Sprague-Dawley rat plasma at 20 mg/kg, po after 12 hrs by UPLC analysis; format: ADME, organism-based; design: dose 20 mg/kg, route oral
Mus musculus [11] = assay: Antiinflammatory activity in acute lung injury C57BL/6 mouse model assessed as inhibition of LPS-induced infiltration of inflammatory cells at 20 mg/kg, po treated 15 mins before LPS challenge measured after 6 hrs by hematoxylin and eosin staining based light microscopic analysis; format: functional, organism-based
Mus musculus [12] = assay: In vivo inhibition of LPS-induced MD2/TLR4 complex formation in lung tissues of acute lung injury C57BL/6 mouse model at 20 mg/kg, po treated 15 mins before LPS challenge measured after 6 hrs by immunoprecipitation assay; format: functional, organism-based
Mus musculus [13] = assay: Antiinflammatory activity in acute lung injury C57BL/6 mouse model assessed as inhibition of LPS-induced MPO activity in lung tissues at 20 mg/kg, po treated 15 mins before LPS challenge measured after 6 hrs; format: functional, organism-based
[14] = target: Mitogen-activated protein kinase 3 (Homo sapiens) (UniProt P27361); assay: Inhibition of full length recombinant human N-terminal GST-tagged ERK1 (1 to 379 residues) expressed in Escherichia coli using modified erktide as substrate at 0.05 to 50 uM after 1 hr by microfluidic assay
Mitogen-activated protein kinase 3 (Homo sapiens), sequence (P27361 whole entry, the tested form may be a part): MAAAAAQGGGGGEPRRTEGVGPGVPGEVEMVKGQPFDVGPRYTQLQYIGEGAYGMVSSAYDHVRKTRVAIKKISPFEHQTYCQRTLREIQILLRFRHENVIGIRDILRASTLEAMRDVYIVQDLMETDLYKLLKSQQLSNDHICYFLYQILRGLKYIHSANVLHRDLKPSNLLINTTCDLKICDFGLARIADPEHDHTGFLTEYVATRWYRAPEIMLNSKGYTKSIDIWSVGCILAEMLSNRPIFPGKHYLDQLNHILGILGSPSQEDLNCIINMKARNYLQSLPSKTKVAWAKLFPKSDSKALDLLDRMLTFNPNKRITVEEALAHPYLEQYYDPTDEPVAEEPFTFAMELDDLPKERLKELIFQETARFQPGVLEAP

Mus musculus [15] = assay: Antiinflammatory activity in acute lung injury C57BL/6 mouse model assessed as inhibition of LPS-induced increase in neutrophil level in bronchoalveolar lavage fluid at 20 mg/kg, po treated 15 mins before LPS challenge measured after 6 hrs by wright-gimesa staining based assay; format: functional, organism-based
Mus musculus [16] = assay: Antiinflammatory activity in acute lung injury C57BL/6 mouse model assessed as inhibition of LPS-induced increase in total cells in bronchoalveolar lavage fluid at 20 mg/kg, po treated 15 mins before LPS challenge measured after 6 hrs by cell counting method; format: functional, organism-based
Mus musculus [17] = assay: Antiinflammatory activity in acute lung injury C57BL/6 mouse model assessed as inhibition of LPS-induced increase in protein concentration in bronchoalveolar lavage fluid at 20 mg/kg, po treated 15 mins before LPS challenge measured after 6 hrs; format: functional, organism-based
Mus musculus [18] = assay: Antiinflammatory activity in acute lung injury C57BL/6 mouse model assessed as inhibition of LPS-induced TNF-alpha mRNA expression in lung tissues at 20 mg/kg, po treated 15 mins before LPS challenge measured after 6 hrs; format: functional, organism-based
[19] = target: T2, Inhibitor of nuclear factor kappa-B kinase subunit beta (Homo sapiens) (UniProt O14920); assay: Inhibition of recombinant human N-terminal His-tagged IKKbeta (1 to 662 residues) expressed in baculovirus expression system using modified IkBalpha-derived peptide as substrate at 0.05 to 50 uM after 1 hr by microfluidic assay
T2 sequence (whole entry): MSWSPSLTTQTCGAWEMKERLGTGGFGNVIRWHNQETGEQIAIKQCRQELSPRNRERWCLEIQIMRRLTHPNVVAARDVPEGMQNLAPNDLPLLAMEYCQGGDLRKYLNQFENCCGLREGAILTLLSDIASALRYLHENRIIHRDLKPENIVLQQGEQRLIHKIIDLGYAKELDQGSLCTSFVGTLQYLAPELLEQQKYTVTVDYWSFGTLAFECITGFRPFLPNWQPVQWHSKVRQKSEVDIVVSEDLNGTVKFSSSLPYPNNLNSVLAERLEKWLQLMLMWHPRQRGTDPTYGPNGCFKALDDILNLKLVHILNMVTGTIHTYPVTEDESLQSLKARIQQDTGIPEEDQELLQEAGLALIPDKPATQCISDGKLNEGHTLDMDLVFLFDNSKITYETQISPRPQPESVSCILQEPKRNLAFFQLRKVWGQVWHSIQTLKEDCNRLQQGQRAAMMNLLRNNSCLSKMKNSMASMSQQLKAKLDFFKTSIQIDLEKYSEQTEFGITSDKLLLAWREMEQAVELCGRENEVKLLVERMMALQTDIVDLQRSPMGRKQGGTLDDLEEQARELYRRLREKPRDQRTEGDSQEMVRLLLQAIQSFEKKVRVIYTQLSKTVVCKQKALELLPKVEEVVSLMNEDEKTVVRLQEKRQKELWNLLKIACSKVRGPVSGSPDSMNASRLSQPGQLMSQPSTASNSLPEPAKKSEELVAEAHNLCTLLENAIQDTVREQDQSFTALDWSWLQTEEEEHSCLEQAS

Mus musculus [20] = assay: Antiinflammatory activity in LPS-induced septic shock C57BL/6 mouse model assessed as mouse survival at 10 mg/kg, iv treated 15 mins before LPS challenge measured for 7 days relative to control; format: functional; settings: C57BL/6, iv
[21] = target: Mitogen-activated protein kinase 14 (Homo sapiens) (UniProt Q16539); assay: Inhibition of recombinant human N-terminal GST-tagged p38-alpha (9 to 352 residues) expressed in Escherichia coli using modified erktide as substrate at 0.05 to 50 uM after 1 hr by microfluidic assay
Mitogen-activated protein kinase 14 (Homo sapiens), sequence (Q16539 whole entry, the tested form may be a part): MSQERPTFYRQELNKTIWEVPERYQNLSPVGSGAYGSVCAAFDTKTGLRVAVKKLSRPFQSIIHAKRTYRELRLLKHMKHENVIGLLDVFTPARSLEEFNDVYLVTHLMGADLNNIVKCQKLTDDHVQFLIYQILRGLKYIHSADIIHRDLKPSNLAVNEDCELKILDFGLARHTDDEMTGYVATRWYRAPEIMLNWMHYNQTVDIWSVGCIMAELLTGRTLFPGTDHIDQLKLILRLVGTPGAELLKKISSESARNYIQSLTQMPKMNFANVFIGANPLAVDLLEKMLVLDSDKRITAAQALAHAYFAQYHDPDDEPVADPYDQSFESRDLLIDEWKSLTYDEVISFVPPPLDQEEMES

Mus musculus [22] = assay: Antiinflammatory activity in acute lung injury C57BL/6 mouse model assessed as inhibition of LPS-induced interstitial edema at 20 mg/kg, po treated 15 mins before LPS challenge measured after 6 hrs by hematoxylin and eosin staining based light microscopic analysis; format: functional, organism-based
[23] = target: Mitogen-activated protein kinase 11 (Homo sapiens) (UniProt Q15759); assay: Inhibition of full length recombinant human N-terminal GST-tagged p38-beta (1 to 364 residues) expressed in Escherichia coli using modified erktide as substrate at 0.05 to 50 uM after 1 hr by microfluidic assay
Mitogen-activated protein kinase 11 (Homo sapiens), sequence (Q15759 whole entry, the tested form may be a part): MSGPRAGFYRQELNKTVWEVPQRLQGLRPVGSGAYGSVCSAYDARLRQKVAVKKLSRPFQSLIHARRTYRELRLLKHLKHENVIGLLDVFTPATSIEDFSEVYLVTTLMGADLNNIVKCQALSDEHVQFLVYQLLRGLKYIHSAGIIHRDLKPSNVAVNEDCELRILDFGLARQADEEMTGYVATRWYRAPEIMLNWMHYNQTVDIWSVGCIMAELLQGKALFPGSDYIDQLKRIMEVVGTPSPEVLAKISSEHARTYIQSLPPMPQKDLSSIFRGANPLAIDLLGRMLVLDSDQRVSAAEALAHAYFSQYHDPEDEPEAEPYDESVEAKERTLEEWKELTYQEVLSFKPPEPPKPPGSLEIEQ

[24] = target: Mitogen-activated protein kinase 9 (Homo sapiens) (UniProt P45984); assay: Inhibition of recombinant human N-terminal GST-tagged JNK2 catalytic domain (1 to 364 residues) expressed in Escherichia coli using modified erktide as substrate at 0.05 to 50 uM after 1 hr by microfluidic assay
Mitogen-activated protein kinase 9 (Homo sapiens), sequence (P45984 whole entry, looked up, the tested form may be a part): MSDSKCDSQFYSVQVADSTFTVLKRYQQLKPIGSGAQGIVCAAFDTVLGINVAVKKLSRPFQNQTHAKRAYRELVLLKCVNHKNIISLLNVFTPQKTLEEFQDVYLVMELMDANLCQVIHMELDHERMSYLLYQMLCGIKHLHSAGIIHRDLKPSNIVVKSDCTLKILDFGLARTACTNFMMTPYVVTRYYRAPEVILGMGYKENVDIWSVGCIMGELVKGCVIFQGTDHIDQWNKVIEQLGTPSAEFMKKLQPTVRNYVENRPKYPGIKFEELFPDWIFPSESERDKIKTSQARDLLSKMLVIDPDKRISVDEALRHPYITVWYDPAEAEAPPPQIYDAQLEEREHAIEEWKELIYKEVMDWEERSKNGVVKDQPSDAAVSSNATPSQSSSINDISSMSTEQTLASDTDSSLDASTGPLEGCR

[25] = target: Toll-like receptor 2 (Mus musculus) (UniProt Q9QUN7); assay: Inhibition of TLR2 in mouse RAW264.7 cells assessed as inhibition of Pam3CK-induced IL-6 level at 5 to 10 uM preincubated for 2 hrs followed by Pam3CK addition measured after 12 hrs by ELISA; format: cell-based
[26] = target: Toll-like receptor 4 (Homo sapiens) (UniProt O00206); assay: Binding affinity to recombinant human TLR4 at 6.25 to 100 uM by surface plasmon resonance analysis
Toll-like receptor 4 (Homo sapiens), sequence (O00206 whole entry): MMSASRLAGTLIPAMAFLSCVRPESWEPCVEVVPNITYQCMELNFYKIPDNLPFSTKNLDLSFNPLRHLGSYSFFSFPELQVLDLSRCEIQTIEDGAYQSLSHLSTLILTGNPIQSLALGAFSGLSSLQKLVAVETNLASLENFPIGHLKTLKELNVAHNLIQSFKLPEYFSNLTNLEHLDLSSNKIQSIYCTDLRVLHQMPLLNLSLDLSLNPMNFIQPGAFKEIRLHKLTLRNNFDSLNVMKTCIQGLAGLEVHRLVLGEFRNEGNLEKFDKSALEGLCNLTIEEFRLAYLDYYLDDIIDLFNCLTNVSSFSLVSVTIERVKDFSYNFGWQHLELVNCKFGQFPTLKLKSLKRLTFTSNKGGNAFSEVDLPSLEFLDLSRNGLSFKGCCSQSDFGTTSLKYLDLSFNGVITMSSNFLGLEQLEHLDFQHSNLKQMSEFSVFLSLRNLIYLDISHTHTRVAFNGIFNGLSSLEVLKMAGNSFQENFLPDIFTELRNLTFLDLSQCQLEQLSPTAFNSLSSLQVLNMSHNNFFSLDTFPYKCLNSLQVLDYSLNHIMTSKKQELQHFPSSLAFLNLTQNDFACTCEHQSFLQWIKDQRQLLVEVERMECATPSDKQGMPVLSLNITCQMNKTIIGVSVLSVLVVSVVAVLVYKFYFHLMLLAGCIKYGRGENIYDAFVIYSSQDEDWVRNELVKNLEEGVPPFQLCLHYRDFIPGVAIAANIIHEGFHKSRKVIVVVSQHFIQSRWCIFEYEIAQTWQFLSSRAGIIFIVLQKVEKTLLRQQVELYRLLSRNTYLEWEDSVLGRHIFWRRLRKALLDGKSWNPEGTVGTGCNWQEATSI

Mus musculus [27] = assay: Antiinflammatory activity in acute lung injury C57BL/6 mouse model assessed as inhibition of LPS-induced pulmonary congestion at 20 mg/kg, po treated 15 mins before LPS challenge measured after 6 hrs by hematoxylin and eosin staining based light microscopic analysis; format: functional, organism-based
Mus musculus [28] = assay: Antiinflammatory activity in acute lung injury C57BL/6 mouse model assessed as inhibition of LPS-induced IL-1beta mRNA expression in lung tissues at 20 mg/kg, po treated 15 mins before LPS challenge measured after 6 hrs; format: functional, organism-based
Mus musculus [29] = assay: Antiinflammatory activity in acute lung injury C57BL/6 mouse model assessed as inhibition of LPS-induced IL-6 mRNA expression in lung tissues at 20 mg/kg, po treated 15 mins before LPS challenge measured after 6 hrs; format: functional, organism-based
[30] = target: T3, Lymphocyte antigen 96 (Mus musculus) (UniProt Q9JHF9); assay: Inhibition of MD2/TLR4 complex formation in C57BL/6 mouse primary peritoneal macrophages assessed as reversal of LPS-induced […] at 10 uM preincubated for 30 mins followed by LPS addition measured after 1 hr by DAPI staining based fluorescence microscopic analysis
T3 sequence (whole entry): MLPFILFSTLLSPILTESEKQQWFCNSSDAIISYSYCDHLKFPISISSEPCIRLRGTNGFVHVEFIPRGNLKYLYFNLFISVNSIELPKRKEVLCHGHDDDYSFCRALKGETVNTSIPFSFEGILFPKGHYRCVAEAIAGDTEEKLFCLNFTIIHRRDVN

Activity [1]: inactive
Structure (SMILES): COc1ccc(CNC(=O)/C=C/c2cccc(Cl)c2Cl)cc1OC
Activity [2]: Non-toxic

Structure (SMILES): COc1cc(/C=C/C(=O)N2CCOCC2)ccc1O
Activity [2]: Non-toxic

Structure (SMILES): O=C(/C=C/c1cccc(Cl)c1Cl)NCCNC(=O)/C=C/c1cccc(Cl)c1Cl
Activity [2]: Non-toxic

Structure (SMILES): COc1ccc(/C=C/C(=O)NCCc2ccccc2)c(OC)c1
Activity [2]: Non-toxic

Structure (SMILES): COc1ccc(/C=C/C(=O)NCCNC(=O)/C=C/c2ccc(OC)cc2OC)c(OC)c1
inhibition [3]: inactive | inhibition (Mus musculus [4]): Active | inhibition (Mus musculus [5]): Active | Cmax [6]: 40 ng/mL | inhibition (Mus musculus [7]): Active | Cmax [8]: 270 ng/mL | Cmax [9]: 550 ng/mL | Cmax [10]: 40 ng/mL | inhibition (Mus musculus [11]): Active | inhibition (Mus musculus [12]): Active | inhibition (Mus musculus [13]): Active | inhibition [14]: inactive | inhibition (Mus musculus [15]): Active | inhibition (Mus musculus [16]): Active | inhibition (Mus musculus [17]): Active | inhibition (Mus musculus [18]): Active | inhibition [19]: inactive | survival at 10 mg/kg (Mus musculus [20]): 100% | inhibition [21]: inactive | inhibition (Mus musculus [22]): Active | inhibition [23]: inactive | inhibition [24]: inactive | inhibition [25]: inactive | Activity [2]: Non-toxic | Activity [26]: inactive | inhibition (Mus musculus [27]): Active | inhibition (Mus musculus [28]): Active | inhibition (Mus musculus [29]): Active

Structure (SMILES): O=C(/C=C/c1cccc(Cl)c1Cl)N1CCOCC1
Activity [2]: Non-toxic

Structure (SMILES): O=C(/C=C/c1cccc(Cl)c1Cl)NCCc1ccccc1
Activity [2]: Non-toxic

Structure (SMILES): CCCCNC(=O)/C=C/c1ccc(OC)cc1OC
Activity [2]: Non-toxic

Structure (SMILES): O=C(/C=C/c1cccc(Cl)c1Cl)NCc1ccc(F)cc1
Activity [2]: Non-toxic

Structure (SMILES): COc1ccc(/C=C/C(=O)NCc2ccc(F)cc2)c(OC)c1
Activity [2]: Non-toxic

Structure (SMILES): COc1cc(/C=C/C(=O)NCc2ccc(F)cc2)ccc1O
Activity [2]: Non-toxic

Structure (SMILES): COc1ccc(/C=C/C(=O)NCc2ccc(Cl)cc2)c(OC)c1
Activity [2]: Non-toxic

Structure (SMILES): COc1cc(/C=C/C(=O)NCc2ccc(Cl)cc2)ccc1O
Activity [2]: Non-toxic

Structure (SMILES): COc1ccc(CCNC(=O)/C=C/c2cccc(Cl)c2Cl)cc1
Activity [2]: Non-toxic

Structure (SMILES): CCCCNC(=O)/C=C/c1cccc(Cl)c1Cl
Activity [2]: Non-toxic

Structure (SMILES): COc1cc(/C=C/C(=O)NCCCc2ccccc2)ccc1O
Activity [2]: Non-toxic

Structure (SMILES): CCCCNC(=O)/C=C/c1ccc(O)c(OC)c1
Activity [2]: Non-toxic

inhibition [30]: inactive
Structure (SMILES): COc1nccc(-c2c(-c3ccc(F)cc3)ncn2[C@H]2CC[C@H](O)CC2)n1
